The target of the test is T1, 5-HT7 receptor (Homo sapiens, UniProt P34969).
T1 construct: expressed in transfected cells
Briefly: 5-HT7 receptor affinity: [3H]5-HT radioligand binding assay. To be noted: [3H]5-HT competition, membranes of AV-12 cells. The protocol:
Membranes for affinity and antagonist activity assays are prepared essentially as follows. AV-12 cells, stably expressing the 5-HT7 receptor, are grown as a monolayer in 5×T-150 flasks in DMEM/F12 (3:1) 5% FBS, 20 mM HEPES, […] geneticin, 50 mg/mL tobramycin. After growing to 90% confluence the media is removed and replaced with Hybritech media (a low calcium version of DMEM/F12 media having 11 mg/L calcium) containing 2% horse serum, […] dextran sulfate, 1 mg/mL nucellin, 1 mg/mL human transferrin (partially iron saturated), 50 mg/mL tobramycin, 20 mM HEPES, […] geneticin, 0.04% pluronic F68. The cells are grown overnight to condition the media. The next morning the conditioned media (−150 mL total) is removed and set aside in a sterile container. The cells are trypsinized and collected in the conditioned media. […]
To prepare membranes, the above pellets are resuspended in ice-cold Tris buffer (20 mM Tris HCl, pH 7.4 at 23° C., 5 mM EDTA) and homogenized with a Wheaton tissue grinder. […] Protein concentrations are determined by the method of Bradford. […]
[^3H] […] The reactions are incubated at room temperature for 3 hr. and then counted in a Trilux Microbeta™ scintillation counter to detect receptor-bound radioligand. Binding data is analyzed by computer-assisted 4 parameter fit analysis (ID Business Solutions Ltd, Guildford, Surrey, UK). […]

For one compound, Ki results are on record in US8048884B2, “Substituted piperazinyl pyrazines and pyridines as 5-HT7 receptor antagonists” (Eli Lilly and Company, priority 2007, dated 2011).

Where “and” joins values, the source holds several entries; their conditions need not be identical. Equal values may be shown once.

T1 sequence (P34969 whole entry): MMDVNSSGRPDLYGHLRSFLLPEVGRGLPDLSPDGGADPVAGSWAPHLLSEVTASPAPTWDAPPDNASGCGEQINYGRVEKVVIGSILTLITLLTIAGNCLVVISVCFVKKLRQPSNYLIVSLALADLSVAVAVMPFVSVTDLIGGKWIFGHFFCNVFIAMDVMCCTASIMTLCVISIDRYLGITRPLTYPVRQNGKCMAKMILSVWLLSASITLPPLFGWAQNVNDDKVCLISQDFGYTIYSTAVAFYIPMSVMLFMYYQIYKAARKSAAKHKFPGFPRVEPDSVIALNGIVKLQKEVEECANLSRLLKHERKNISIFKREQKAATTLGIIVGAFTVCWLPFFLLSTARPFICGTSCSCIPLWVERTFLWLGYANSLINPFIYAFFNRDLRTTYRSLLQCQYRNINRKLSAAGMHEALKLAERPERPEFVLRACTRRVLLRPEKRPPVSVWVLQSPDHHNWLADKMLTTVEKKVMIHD

As for `COCc1ccc(-c2nccnc2N2CCN(CCN(C)S(=O)(=O)c3cnn(C)c3)CC2)cc1.Cl` [Example 25, 1-Methyl-1H-pyrazole-4-sulfonic acid {2-[3′-(4-methoxymethyl-phenyl)-2,3,5,6-tetrahydro-[1,2′]bipyrazinyl-4-yl]-ethyl}-methyl-amide hydrochloride], the Ki – broadly, the equilibrium dissociation constant of an inhibitor or competing ligand from its target – is ~19.4 nM and 19.4 nM.
